In patent US9636336B2, “Aminoester derivatives” (CHIESI FARMACEUTICI S.p.A., priority 2015, dated 2017):

Tests used:
Human recombinant PDE4B2 = Human recombinant PDE4B2 (Homo sapiens (Human), UniProt Q07343); test: PDE4B2 HTRF assay; format: biochemical; conditions: PDE4B2 HTRF assay; read-out: PDE4B2 IC50 activity
Protocol: PDE4B2 activity is detected using the LANCE Ultra cAMP homogeneous time resolved fluorescence resonance energy transfer (TR-FRET) assay from Perkin Elmer. The assay is based on the competition between the europium (Eu) chelate-labeled cAMP tracer and sample cAMP for binding sites on cAMP-specific monoclonal antibodies (mAb) labelled with the ULight™ dye. The assay is carried out in 384-well low volume plates in a volume of 10 μl. Human recombinant PDE4B2 (80 pM) is incubated for 2 h with 3 nM cAMP in buffer containing 1×HBSS, 5 mM HEPES, 3 mM MgCl2, 0.1% BSA, pH 7.4 with or without test compounds. The enzymatic reactions are efficiently stopped by the addition of 500 μM IBMX present in the combined Stop/Detection buffer containing europium (Eu) chelate-labeled cAMP tracer and cAMP-specific monoclonal antibodies (mAb) labelled with the ULight™ dye. […] IC50 values are determined from competition curves using a non-linear curve fitting program.

[1] = molecular target: Human M3 receptor membranes (Homo sapiens (Human), UniProt P20309); test: M3 Receptor radioligand binding assay; conditions: M3 Receptor radioligand binding assay; read-out: M3 IC50 activity
Protocol: M3 Receptor Radioligand Binding Assay:
The assay is carried out in 96-well polypropylene plates in a volume of 250 μl. […] The final assay concentration of DMSO is 0.5% (v/v). The plates are sealed and incubated for 2 h at room temperature on an orbital shaker (slow speed). Membranes are harvested onto 96-well unifilter GF/C filter plates pre-treated with 0.5% polyethyleneimine (v/v), using a filter manifold, washed four times with 200 μl of assay buffer. The plates are dried before addition of 50 μl of microscint-0, sealed then read in a Trilux Microbeta scintillation counter. IC50 values are determined from competition curves using a non-linear curve fitting program. Ki values are calculated from IC50 values by the Cheng and Prusoff equation.

Chain of Human M3 receptor membranes (P20309 whole entry): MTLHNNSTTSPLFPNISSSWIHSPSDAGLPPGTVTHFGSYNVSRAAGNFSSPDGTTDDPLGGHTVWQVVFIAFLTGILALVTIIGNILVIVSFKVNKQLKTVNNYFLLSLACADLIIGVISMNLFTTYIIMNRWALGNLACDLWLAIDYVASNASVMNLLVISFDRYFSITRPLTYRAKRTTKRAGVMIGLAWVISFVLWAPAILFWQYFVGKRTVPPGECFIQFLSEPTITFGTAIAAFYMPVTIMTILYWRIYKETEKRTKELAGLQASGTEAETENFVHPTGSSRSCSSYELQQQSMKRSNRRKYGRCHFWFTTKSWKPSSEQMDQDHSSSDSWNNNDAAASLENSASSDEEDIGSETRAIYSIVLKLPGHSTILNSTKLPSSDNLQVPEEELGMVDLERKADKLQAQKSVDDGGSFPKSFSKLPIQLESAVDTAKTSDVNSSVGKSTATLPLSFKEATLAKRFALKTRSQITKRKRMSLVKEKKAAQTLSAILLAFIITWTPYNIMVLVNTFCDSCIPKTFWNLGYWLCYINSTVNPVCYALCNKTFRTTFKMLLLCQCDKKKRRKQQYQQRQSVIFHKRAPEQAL
Chain of Human recombinant PDE4B2 (Q07343 other isoform, or with tags, fused parts or gaps): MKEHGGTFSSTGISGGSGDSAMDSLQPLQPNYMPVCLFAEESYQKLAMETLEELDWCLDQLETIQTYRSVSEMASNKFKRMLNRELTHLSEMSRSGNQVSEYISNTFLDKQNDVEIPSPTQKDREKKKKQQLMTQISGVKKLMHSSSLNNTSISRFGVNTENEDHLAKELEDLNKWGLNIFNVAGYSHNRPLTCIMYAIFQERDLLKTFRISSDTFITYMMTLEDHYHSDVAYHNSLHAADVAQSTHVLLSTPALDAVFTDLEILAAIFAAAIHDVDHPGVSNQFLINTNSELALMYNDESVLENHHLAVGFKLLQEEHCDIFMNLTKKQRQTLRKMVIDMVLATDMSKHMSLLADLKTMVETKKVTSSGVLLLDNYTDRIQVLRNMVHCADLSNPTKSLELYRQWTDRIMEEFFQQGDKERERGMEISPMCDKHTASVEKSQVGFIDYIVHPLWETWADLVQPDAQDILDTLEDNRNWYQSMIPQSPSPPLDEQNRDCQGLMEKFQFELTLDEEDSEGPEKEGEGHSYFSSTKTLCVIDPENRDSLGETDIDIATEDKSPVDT

Q: How did the IC50 (Human recombinant PDE4B2) turn out when COc1ccc([C@H](Cc2c(Cl)c[n+]([O-])cc2Cl)OC(=O)c2ccc(CNC(CO)(C(=O)OCC3CCN(C)CC3)c3cccs3)s2)cc1OC (mixture of isomers) [Example 37, [(1S)-2-(3,5-dichloro-1-oxido-pyridin-1-ium-4-yl)-1-(3,4-dimethoxyphenyl)ethyl]5-[[[1-(hydroxymethyl)-2-[(1-methyl-4-piperidyl)methoxy]-2-oxo-1-(2-thienyl)ethyl]amino]methyl]thiophene-2-carboxylate] was run?
A: The IC50 was less than 1 nM.

Q: And the IC50 [1]?
A: The IC50 was 1 to 10 nM.

Q: Which results are given for COc1ccc(C(Cc2c(Cl)c[n+]([O-])cc2Cl)OC(=O)c2ccc(CNC(C(=O)OCC3CCN(C)CC3)c3cccc(O)c3)s2)cc1OCC1CC1 (stereo not drawn) [Example 47, [1-[3-(cyclopropylmethoxy)-4-methoxy-phenyl]-2-(3,5-dichloro-1-oxido-pyridin-1-ium-4-yl)ethyl]5-[[[1-(3-hydroxyphenyl)-2-[(1-methyl-4-piperidyl)methoxy]-2-oxo-ethyl]amino]methyl]thiophene-2-carboxylate]?
A: IC50 (Human recombinant PDE4B2): 1 to 10 nM; IC50 [1]: 1 to 10 nM

Q: For COc1ccc([C@H](Cc2c(Cl)c[n+]([O-])cc2Cl)OC(=O)c2ccc(CNC(C(=O)OCC3CN(C)C3)c3ccccc3)s2)cc1OC (stereo partly drawn) [Example 25, [(1S)-2-(3,5-dichloro-1-oxido-pyridin-1-ium-4-yl)-1-(3,4-dimethoxyphenyl)ethyl] 5-[[[2-[(1-methylazetidin-3-yl)methoxy]-2-oxo-1-phenyl-ethyl]amino]methyl]thiophene-2-carboxylate], which IC50 (Human recombinant PDE4B2) is on record?
A: Its IC50 is 1 to 10 nM.

Q: What about the IC50 [1] of the same molecule?
A: Its IC50 is 1 to 10 nM.

Q: For COc1ccc([C@H](Cc2c(Cl)c[n+]([O-])cc2Cl)OC(=O)c2ccc(CNC(C(=O)OCC3(C)CCN(C)CC3)c3ccccc3)s2)cc1OC (mixture of isomers) [Example 2, [(1S)-2-(3,5-dichloro-1-oxido-pyridin-1-ium-4-yl)-1-(3,4-dimethoxyphenyl)ethyl]5-[[[2-[(1,4-dimethyl-4-piperidyl)methoxy]-2-oxo-1-phenyl-ethyl]amino]methyl]thiophene-2-carboxylate], which IC50 (Human recombinant PDE4B2) is on record?
A: The IC50 was 1 to 10 nM.

Q: And the IC50 [1]?
A: Its IC50 is 10 to 100 nM.

Q: COc1ccc([C@H](Cc2c(Cl)c[n+]([O-])cc2Cl)OC(=O)c2ccc(CNC(C(=O)OC[C@H]3CCCCN3C)c3ccccc3)s2)cc1OC (stereo partly drawn) [Example 30, [(1S)-2-(3,5-dichloro-1-oxido-pyridin-1-ium-4-yl)-1-(3,4-dimethoxyphenyl)ethyl] 5-[[[2-[[(2R)-1-methyl-2-piperidyl]methoxy]-2-oxo-1-phenyl-ethyl]amino]methyl]thiophene-2-carboxylate] was tested. Which IC50 [1] did it give?
A: The IC50 was 10 to 100 nM.

Q: With COc1ccc([C@H](Cc2c(Cl)c[n+]([O-])cc2Cl)OC(=O)c2ccc(CNC(C)(C(=O)OCC3CCN(C)CC3)c3ccccc3)s2)cc1OC (stereo partly drawn) [Example 34, [(1S)-2-(3,5-dichloro-1-oxido-pyridin-1-ium-4-yl)-1-(3,4-dimethoxyphenyl)ethyl] 5-[[[1-methyl-2-[(1-methyl-4-piperidyl)methoxy]-2-oxo-1-phenyl-ethyl]amino]methyl]thiophene-2-carboxylate] as the molecule, how does the IC50 [1] read?
A: The IC50 was 1 to 10 nM.

Q: Which IC50 [1] does the source give for COc1ccc([C@H](Cc2c(Cl)c[n+]([O-])cc2Cl)OC(=O)c2ccc(CNC(C(=O)OCC3CCN(C)CC3)c3cccc(O)c3)s2)cc1OC (stereo partly drawn) [Example 41, [(1S)-2-(3,5-dichloro-1-oxido-pyridin-1-ium-4-yl)-1-(3,4-dimethoxyphenyl)ethyl]5-[[[1-(3-hydroxyphenyl)-2-[(1-methyl-4-piperidyl)methoxy]-2-oxo-ethyl]amino]methyl]thiophene-2-carboxylate] here?
A: Its IC50 is 1 to 10 nM.

Q: For CCOc1cc(C(Cc2c(Cl)c[n+]([O-])cc2Cl)OC(=O)c2ccc(CNC(C(=O)OCC3CCN(C)CC3)c3cccc(O)c3)s2)ccc1OC (stereo not drawn) [Example 120], which IC50 (Human recombinant PDE4B2) is on record?
A: Its IC50 is less than 1 nM.

Q: Which IC50 (Human recombinant PDE4B2) does the source give for COc1ccc([C@H](Cc2c(Cl)c[n+]([O-])cc2Cl)OC(=O)c2ccc(CNC(CO)(C(=O)OC[C@@H]3CCN(C)C3)c3ccccc3)s2)cc1OC (stereo partly drawn) [Example 116, [(1S)-2-(3,5-dichloro-1-oxido-pyridin-1-ium-4-yl)-1-(3,4-dimethoxyphenyl)ethyl] 5-[[[1-(hydroxymethyl)-2-[[(3R)-1-methylpyrrolidin-3-yl]methoxy]-2-oxo-1-phenyl-ethyl]amino]methyl]thiophene-2-carboxylate] here?
A: The IC50 was 1 to 10 nM.

Q: With COc1ccc([C@H](Cc2c(Cl)c[n+]([O-])cc2Cl)OC(=O)c2ccc(CNC(C(=O)OC[C@H]3CCCN(C)C3)c3ccccc3)s2)cc1OC (stereo partly drawn) [Example 26, [(1S)-2-(3,5-dichloro-1-oxido-pyridin-1-ium-4-yl)-1-(3,4-dimethoxyphenyl)ethyl] 5-[[[2-[[(3S)-1-methyl-3-piperidyl]methoxy]-2-oxo-1-phenyl-ethyl]amino]methyl]thiophene-2-carboxylate] as the molecule, how does the IC50 [1] read?
A: The IC50 was 1 to 10 nM.

Q: Which IC50 (Human recombinant PDE4B2) does the source give for CCN1CCC(COC(=O)C(NCc2ccc(C(=O)O[C@@H](Cc3c(Cl)c[n+]([O-])cc3Cl)c3ccc(OC)c(OC)c3)s2)c2ccccc2)CC1 (stereo partly drawn) [Example 19] here?
A: The IC50 was less than 1 nM.

Q: With COc1ccc([C@H](Cc2c(Cl)c[n+]([O-])cc2Cl)OC(=O)c2ccc(CNC(C(=O)OC[C@@H]3CCCN(C)C3)c3ccccc3)s2)cc1OC (stereo partly drawn) [Example 50, [(1S)-2-(3,5-dichloro-1-oxido-pyridin-1-ium-4-yl)-1-(3,4-dimethoxyphenyl)ethyl]5-[[[2-[[(3R)-1-methyl-3-piperidyl]methoxy]-2-oxo-1-phenyl-ethyl]amino]methyl]thiophene-2-carboxylate] as the molecule, how does the IC50 [1] read?
A: Its IC50 is 1 to 10 nM.

Q: COc1ccc([C@H](Cc2c(Cl)c[n+]([O-])cc2Cl)OC(=O)c2ccc(CNC(C(=O)OCCN3CCCC3)c3ccccc3)s2)cc1OC (stereo partly drawn) [Example 21, [(1S)-2-(3,5-dichloro-1-oxido-pyridin-1-ium-4-yl)-1-(3,4-dimethoxyphenyl)ethyl] 5-[[[2-oxo-1-phenyl-2-(2-pyrrolidin-1-ylethoxy)ethyl]amino]methyl]thiophene-2-carboxylate] was tested. Which IC50 (Human recombinant PDE4B2) did it give?
A: Its IC50 is 1 to 10 nM.

Q: For COc1ccc(C(Cc2c(Cl)c[n+]([O-])cc2Cl)OC(=O)c2ccc(CNC(C(=O)OCC3CCN(C)CC3)c3ccccc3)s2)cc1OC1CCCC1 (stereo not drawn) [Example 6, [1-[3-(cyclopentoxy)-4-methoxy-phenyl]-2-(3,5-dichloro-1-oxido-pyridin-1-ium-4-yl)ethyl] 5-[[[2-[(1-methyl-4-piperidyl)methoxy]-2-oxo-1-phenyl-ethyl]amino]methyl]thiophene-2-carboxylate], which IC50 [1] is on record?
A: The IC50 was 1 to 10 nM.

Q: With COc1ccc([C@H](Cc2c(Cl)c[n+]([O-])cc2Cl)OC(=O)c2ccc(CNC(C(=O)OCC3(F)CCN(C)CC3)c3ccccc3)s2)cc1OC (stereo partly drawn) [Example 3, [(1S)-2-(3,5-dichloro-1-oxido-pyridin-1-ium-4-yl)-1-(3,4-dimethoxyphenyl)ethyl] 5-[[[2-[(4-fluoro-1-methyl-4-piperidyl)methoxy]-2-oxo-1-phenyl-ethyl]amino]methyl]thiophene-2-carboxylate] as the molecule, how does the IC50 (Human recombinant PDE4B2) read?
A: Its IC50 is 1 to 10 nM.

Q: For COc1ccc([C@H](Cc2c(Cl)c[n+]([O-])cc2Cl)OC(=O)c2ccc(CNC(C(=O)OCC3CCN(C)CC3)c3ccccc3OC)s2)cc1OC (stereo partly drawn) [Example 118], which IC50 (Human recombinant PDE4B2) is on record?
A: Its IC50 is less than 1 nM.

Q: For COc1ccc(C(Cc2c(Cl)c[n+]([O-])cc2Cl)OC(=O)c2ccc(CNC(C(=O)OCC3CCN(C)CC3)c3cccc(O)c3)s2)cc1OCC1CC1 (stereo not drawn) [Example 48, [1-[3-(cyclopropylmethoxy)-4-methoxy-phenyl]-2-(3,5-dichloro-1-oxido-pyridin-1-ium-4-yl)ethyl]5-[[[1-(3-hydroxyphenyl)-2-[(1-methyl-4-piperidyl)methoxy]-2-oxo-ethyl]amino]methyl]thiophene-2-carboxylate], which IC50 [1] is on record?
A: Its IC50 is 10 to 100 nM.
